{
  "source": "patent EP0444659B1",
  "about": "“A pharmaceutical solution comprising derivatives of FK506” (FUJISAWA PHARMACEUTICAL CO., LTD., priority 1990, dated 1991)",
  "type_in_all_cases": "physicochemical",
  "key": {"[1]": {"assay": "dilution of the solution with physiological saline: clarity, turbidity and crystal separation", "procedure": "Nonaqueous solvent is, at the time of administrating into the human vascular tract, usually diluted with aqueous solvent such as physiological saline, since nonaqueous solvent has hemolysis action.\nThe experimental solution (1ml) of the following prescription 3 consisting of FK 506, surface active agent and nonaqueous solvent was diluted with physiological saline (100ml) to find that the clear appearance of prescription was kept unchanged.\nThen several prescriptions of clear solution were further prepared altering the concentration of FK 506, the kind and the concentration of surface active agent, and were tested how change the clearity of the solution and whether separate out the crystal or not under the several condition of different degree of dilution."}, "[2]": {"assay": "remaining percentage of FK 506 in aqueous solution with large amount of surface active agent (storage stability)", "details": "FK 506 dissolved in water in the presence of large amount of surface active agent; Table 2 is an image"}, "[3]": {"assay": "solubility of FK 506 in nonaqueous solvents", "details": "for solubility: ambient temperature"}},
  "data": [
    {"smiles": "C=CCC1C=C(C)CC(C)CC(OC)C2OC(O)(C(=O)C(=O)N3CCCCC3C(=O)OC(C(C)=CC3CCC(O)C(OC)C3)C(C)C(O)CC1=O)C(C)CC2OC", "note": "(centres unmarked) [FK 506, 17-allyl-1,14-dihydroxy-12-[2-(4-hydroxy-3-methoxycyclohexyl)-1-methylvinyl]-23, 25-dimethoxy-13,19,21,27-tetramethyl-11, 28-dioxa-4-azatricyclo-[22.3.1.0^4.9] octacos-18-ene-2,3,10,16-tetraone]", "values": [
      {"measurement": "Period till solution becomes turbid to crystallize FK506", "setting": "[1]; FK 506 10 mg/ml, dilution times with physiological saline 2, HCO-40, ethanol/surface active agent 40/60", "value": "≧7 days"},
      {"measurement": "Period till solution becomes turbid to crystallize FK506", "setting": "[1]; FK 506 10 mg/ml, dilution times with physiological saline 2, HCO-40, ethanol/surface active agent 80/20", "value": "≧7 days"},
      {"measurement": "Period till solution becomes turbid to crystallize FK506", "setting": "[1]; FK 506 10 mg/ml, dilution times with physiological saline 2, HCO-60, ethanol/surface active agent 35/65", "value": "≧7 days"},
      {"measurement": "Period till solution becomes turbid to crystallize FK506", "setting": "[1]; FK 506 10 mg/ml, dilution times with physiological saline 2, HCO-60, ethanol/surface active agent 60/40", "value": "≧7 days"},
      {"measurement": "Period till solution becomes turbid to crystallize FK506", "setting": "[1]; FK 506 10 mg/ml, dilution times with physiological saline 2, HCO-60, ethanol/surface active agent 80/20", "value": "≧7 days"},
      {"measurement": "Period till solution becomes turbid to crystallize FK506", "setting": "[1]; FK 506 10 mg/ml, dilution times with physiological saline 100, Cremophor®EL, ethanol/surface active agent 35/65", "value": "≧7 days"},
      {"measurement": "Period till solution becomes turbid to crystallize FK506", "setting": "[1]; FK 506 10 mg/ml, dilution times with physiological saline 100, Cremophor®EL, ethanol/surface active agent 80/20", "value": "≧7 days"},
      {"measurement": "Period till solution becomes turbid to crystallize FK506", "setting": "[1]; FK 506 10 mg/ml, dilution times with physiological saline 100, HCO-40, ethanol/surface active agent 40/60", "value": "≧7 days"},
      {"measurement": "Period till solution becomes turbid to crystallize FK506", "setting": "[1]; FK 506 10 mg/ml, dilution times with physiological saline 100, HCO-40, ethanol/surface active agent 80/20", "value": "≧7 days"},
      {"measurement": "Period till solution becomes turbid to crystallize FK506", "setting": "[1]; FK 506 10 mg/ml, dilution times with physiological saline 100, HCO-60, ethanol/surface active agent 35/65", "value": "≧7 days"},
      {"measurement": "Period till solution becomes turbid to crystallize FK506", "setting": "[1]; FK 506 10 mg/ml, dilution times with physiological saline 100, HCO-60, ethanol/surface active agent 60/40", "value": "≧7 days"},
      {"measurement": "Period till solution becomes turbid to crystallize FK506", "setting": "[1]; FK 506 10 mg/ml, dilution times with physiological saline 100, HCO-60, ethanol/surface active agent 80/20", "value": "≧7 days"},
      {"measurement": "Period till solution becomes turbid to crystallize FK506", "setting": "[1]; FK 506 25 mg/ml, dilution times with physiological saline 2, Cremophor®EL, ethanol/surface active agent 35/65", "value": "≧7 days"},
      {"measurement": "Period till solution becomes turbid to crystallize FK506", "setting": "[1]; FK 506 25 mg/ml, dilution times with physiological saline 2, Cremophor®EL, ethanol/surface active agent 80/20", "value": "≧7 days"},
      {"measurement": "Period till solution becomes turbid to crystallize FK506", "setting": "[1]; FK 506 25 mg/ml, dilution times with physiological saline 2, HCO-40, ethanol/surface active agent 40/60", "value": "≧7 days"},
      {"measurement": "Period till solution becomes turbid to crystallize FK506", "setting": "[1]; FK 506 25 mg/ml, dilution times with physiological saline 2, HCO-40, ethanol/surface active agent 80/20", "value": "≧7 days"},
      {"measurement": "Period till solution becomes turbid to crystallize FK506", "setting": "[1]; FK 506 25 mg/ml, dilution times with physiological saline 2, HCO-60, ethanol/surface active agent 35/65", "value": "≧7 days"},
      {"measurement": "Period till solution becomes turbid to crystallize FK506", "setting": "[1]; FK 506 25 mg/ml, dilution times with physiological saline 2, HCO-60, ethanol/surface active agent 60/40", "value": "≧7 days"},
      {"measurement": "Period till solution becomes turbid to crystallize FK506", "setting": "[1]; FK 506 25 mg/ml, dilution times with physiological saline 2, HCO-60, ethanol/surface active agent 80/20", "value": "≧7 days"},
      {"measurement": "Period till solution becomes turbid to crystallize FK506", "setting": "[1]; FK 506 25 mg/ml, dilution times with physiological saline 100, Cremophor®EL, ethanol/surface active agent 35/65", "value": "≧7 days"},
      {"measurement": "Period till solution becomes turbid to crystallize FK506", "setting": "[1]; FK 506 25 mg/ml, dilution times with physiological saline 100, Cremophor®EL, ethanol/surface active agent 80/20", "value": "≧1 days"},
      {"measurement": "Period till solution becomes turbid to crystallize FK506", "setting": "[1]; FK 506 25 mg/ml, dilution times with physiological saline 100, HCO-40, ethanol/surface active agent 40/60", "value": "≧7 days"},
      {"measurement": "Period till solution becomes turbid to crystallize FK506", "setting": "[1]; FK 506 25 mg/ml, dilution times with physiological saline 100, HCO-40, ethanol/surface active agent 80/20", "value": "≧1 days"},
      {"measurement": "Period till solution becomes turbid to crystallize FK506", "setting": "[1]; FK 506 25 mg/ml, dilution times with physiological saline 100, HCO-60, ethanol/surface active agent 35/65", "value": "≧7 days"},
      {"measurement": "Period till solution becomes turbid to crystallize FK506", "setting": "[1]; FK 506 25 mg/ml, dilution times with physiological saline 100, HCO-60, ethanol/surface active agent 60/40", "value": "≧1 days"},
      {"measurement": "Period till solution becomes turbid to crystallize FK506", "setting": "[1]; FK 506 25 mg/ml, dilution times with physiological saline 100, HCO-60, ethanol/surface active agent 80/20", "value": "≧7 days"},
      {"measurement": "Period till solution becomes turbid to crystallize FK506", "setting": "[1]; FK 506 50 mg/ml, dilution times with physiological saline 2, Cremophor®EL, ethanol/surface active agent 35/65", "value": "≧7 days"},
      {"measurement": "Period till solution becomes turbid to crystallize FK506", "setting": "[1]; FK 506 50 mg/ml, dilution times with physiological saline 2, Cremophor®EL, ethanol/surface active agent 80/20", "value": "≧1 days"},
      {"measurement": "Period till solution becomes turbid to crystallize FK506", "setting": "[1]; FK 506 50 mg/ml, dilution times with physiological saline 2, HCO-40, ethanol/surface active agent 40/60", "value": "≧7 days"},
      {"measurement": "Period till solution becomes turbid to crystallize FK506", "setting": "[1]; FK 506 50 mg/ml, dilution times with physiological saline 2, HCO-40, ethanol/surface active agent 80/20", "value": "≧1 days"},
      {"measurement": "Period till solution becomes turbid to crystallize FK506", "setting": "[1]; FK 506 50 mg/ml, dilution times with physiological saline 2, HCO-60, ethanol/surface active agent 35/65", "value": "≧7 days"},
      {"measurement": "Period till solution becomes turbid to crystallize FK506", "setting": "[1]; FK 506 50 mg/ml, dilution times with physiological saline 2, HCO-60, ethanol/surface active agent 60/40", "value": "≧7 days"},
      {"measurement": "Period till solution becomes turbid to crystallize FK506", "setting": "[1]; FK 506 50 mg/ml, dilution times with physiological saline 2, HCO-60, ethanol/surface active agent 80/20", "value": "≧7 days"},
      {"measurement": "remaining percentage of FK 506 in aqueous solution (storage stability)", "setting": "[2]", "value": "stability for long period storage is not expectable"},
      {"measurement": "concentration at which FK 506 is dissolved in the experimented solvent", "setting": "[3]; PEG 400, ethanol and propylene glycol (summary of Table 3)", "value": "more than 40 mg/ml"},
      {"measurement": "solubility", "setting": "[3]; Solvent Ethanol", "value": "> 300", "unit": "mg/mL"},
      {"measurement": "solubility", "setting": "[3]; Solvent PEG 400", "value": "> 40", "unit": "mg/mL"},
      {"measurement": "solubility", "setting": "[3]; Solvent Propylene glycol", "value": "> 40", "unit": "mg/mL"}
    ]}
  ]
}
